According to US8496964B2, “Controlled release micro-capsule for osteogenic action” (Council of Scientific & Industrial Research, priority 2009, dated 2013):

How the values were obtained:
[1] = test system: ovariectomized (OVx) rats; test: Bone mineral density (BMD) by DEXA after one month of oral administration; type: in vivo, female Sprague Dawley rats
Procedure: (§1) The study was conducted in accordance with current legislation on animal experiments [Institutional Animal Ethical Committee (IAEC)] at C.D.R.I. Forty female Sprague Dawley rats weighing 200 g were taken for the study (n=10/group). Thirty rats were bilaterally ovariectomized (OVx). The other 10 rats were exposed to a sham surgical procedure. All rats were individually housed at 21° C., in 12-h/12-h light-dark cycles. Normal chow diet and water was provided ad libitum. The rats were left for 4 weeks to develop osteopenia. The animals were divided into 4 groups Sham, Ovaticetomized group (Ovx), Ovx+Kaempferol (Ovaticetomized group treated with Kaempferol) and Ovx+F (Ovaticetomized group treated with formulation of Kaempferol). Animals were treated for one month then sacrificed and BMD was determined.
BMD was determined by DEXA (Dual Energy X-ray Absorptiometry) using a Hologic QDR 4500A x-ray densitometer with high-resolution small animal software. BMD of the excised bones (left femurs, tibia, and lumbar vertebrae) were studied at the end of experiment. Left femurs were placed on their posterior surfaces, and BMD of the sub-regions was assessed. Distal and proximal regions corresponded to the cancellous bone and central to the cortical bone. Results are given in g/cm^2 as represented in FIG. 5.

[2] = In vitro Kaempferol release in SGF and SIF; type: physicochemical; conditions: SIF compared with SGF
Text: For in-vitro release study the ultra sink condition was maintained. Briefly, Dried pure Kaempferol dispersed in PBS, the Kaempferol-loaded CaCO3 MP (CaCO3-Kaempferol) and the encapsulated Kaempferol-loaded microcapsules suspension in same concentration were taken in centrifuge tube in one ml phosphate buffer saline (PBS). Two different pH solutions were used as the release medium [a simulated gastric fluid (SGF) (pH 1.2), prepared by diluting a concentrated HCl solution] and [a simulated intestinal fluid (SIF) (pH 7.4), prepared with 0.02M phosphate buffer saline]. The sample was maintained under horizontal agitation at 37° C. in vortex. At different time intervals the dispersion was centrifuged at 10,000 rpm for 5 min. and the supernatant was assayed for Kaempferol using RP-HPLC method at 370 nm against reagent blank. After each sampling the medium was replaced with fresh buffer. It was also ensured that no extra tiny particles are left in the supernatant.

[3] = test system: ovariectomized (OVx) rats; test: Trabecular bone strength, Bone Strength Tester TK-252C; type: in vivo, female Sprague Dawley rats; conditions: one month treatment
Procedure: as §1
This test predominantly measured trabecular bone strength using a Bone Strength Tester TK-252C (Muromachi Kikai Co. Ltd., Tokyo, Japan). The bone strength for all the groups was measured as reported in this invention.

[4] = in vivo; conditions: rat, po, 1 mg/kg
Procedure: Kaempferol (free; 1 mg/kg) in 20% ethanol was orally administered by gavage. Following administration, the rats were sacrificed at 0.25, 0.5, 1.0, 1.5, 2.0, 2.5, 3.0, 4.0, 6.0, and 24 h to obtain serum and bone marrow. After protein precipitation, concentration of Kaempferol in serum and bone marrow was determined by HPLC. […] Similarly formulated (LbL based assembly) Kaempferol (equivalent to 1 mg/kg of free Kaempferol) was administered orally using gavage. Following administration, the rats were sacrificed at 0.25, 0.5, 1.0, 1.5, 2.0, 2.5, 3.0, 4.0, 6.0, and 24 h to obtain serum and bone marrow. After protein precipitation concentration of Kaempferol in serum and bone marrow was determined by HPLC. The mean serum pharmacokinetics profile (for the three rats at each time point) of kaempferol on administration of formulation was calculated over 24 h. Rapid absorption of Kaempferol is evident, which appeared to peak after 1 h and can be detected for as long as 24 h post administration.

[5] = test system: OVx rats; conditions: cited from earlier work
[6] = one month oral treatment, excised bone
[7] = compared with OVx group treated with vehicle

For O=c1c(O)c(-c2ccc(O)cc2)oc2cc(O)cc(O)c12 [Kaempferol], the “Bone Mineral Density, Femur diaphysis” value [1, 6] was 0.2658 ± 0.01 g/cm^2, the “Bone Mineral Density, Femur global” value [1, 6] was 0.262 ± 0.01 g/cm^2 and the “Bone Mineral Density, Tibia Head” value [1, 6] was 0.2835 ± 0.015 g/cm^2. The “Bone Mineral Density, Vertebrae global” value [1, 6] was 0.1847 ± 0.013 g/cm^2, the “trabecular BMD over OVx+vehicle group” value ([1]; one month treatment) was “significantly higher” and the Kaempferol saturation solubility [2] was “much higher”. For the same compound, the “bone biomechanical strength over OVx+vehicle group” value [3] was “significantly higher”, the Bone strength ([3]; trabecular bone) was 209.4 ± 21.52 N/mm and the AUC(0-t) [4] was 1420 ng·h/mL. The Tmax [4] was 30 min, the “time after which bone marrow level went below the detection limit” value [4] was 2.5 h and the “time after which serum level went below the detection limit” value [4] was 6 h. For the same compound, the “time of Cmax in bone marrow” value [4] was 90 min, the Cmax ([4]; Cmax of Kaempferol in bone marrow) was 194 ng/mL and the Cmax ([4]; Cmax of Kaempferol in serum) was 583 ± 229 ng/mL. The bone sparing action [5] was “exerts bone sparing action”, the “estrogen agonistic effect at the uterine level” value [5] was “no estrogen agonistic effect” and the “adipocyte differentiation from bone marrow cells” value [5, 7] was “inhibition”. For the same compound, the osteoprogenitor cells [5, 7] was “increase”.
